Test results published in US11040112B2, “Lipids and lipid nanoparticle formulations for delivery of nucleic acids” (Acuitas Therapeutics, Inc., priority 2015, dated 2021).

Tests used:
[1] = Determination of pKa of formulated lipids in lipid nanoparticles (TNS fluorescence assay); type: physicochemical; details: pKa of cationic lipid in LNP (cationic lipid/DSPC/cholesterol/PEG-lipid 50/10/38.5/1.5 mol %), pH of half-maximal intensity
Procedure: As described elsewhere, the pKa of formulated cationic lipids is correlated with the effectiveness of LNPs for delivery of nucleic acids (see Jayaraman et al, Angewandte Chemie, International Edition (2012), 51(34), 8529-8533; Semple et al, Nature Biotechnology 28, 172-176 (2010)). The preferred range of pKa is ˜5 to ˜7. […] Lipid nanoparticles comprising of cationic lipid/DSPC/cholesterol/PEG-lipid (50/10/38.5/1.5 mol %) in PBS at a concentration of 0.4 mM total lipid are prepared using the in-line process as described in Example 1. TNS was prepared as a 100 μM stock solution in distilled water. Vesicles were diluted to 24 μM lipid in 2 mL of buffered solutions containing, 10 mM HEPES, 10 mM MES, 10 mM ammonium acetate, 130 mM NaCl, where the pH ranged from 2.5 to 11. An aliquot of the TNS solution was added to give a final concentration of 1 μM and following vortex mixing fluorescence intensity was measured at room temperature in a SLM Aminco Series 2 Luminescence Spectrophotometer using excitation and emission wavelengths of 321 nm and 445 nm. A sigmoidal best fit analysis was applied to the fluorescence data and the pKa was measured as the pH giving rise to half-maximal fluorescence intensity (see FIG. 2).

[2] = test system: luciferase expression in the liver; assay: Luciferase mRNA in vivo evaluation: luciferase expression in the liver after tail vein injection of FLuc mRNA lipid nanoparticles; set-up: species or system mice; details: liver 4 hours after administration; for Liver Luc @ 0.3 mg/kg (ng luc/g liver): 0.3 mg mRNA/kg; for Liver Luc @ 1.0 mg/kg (ng luc/g liver): 1.0 mg mRNA/kg
Procedure: Cationic lipid, DSPC, cholesterol and PEG-lipid were solubilized in ethanol at a molar ratio of 50:10:38.5:1.5 or 47.5:10:40.8:1.7. Lipid nanoparticles (LNP) were prepared at a total lipid to mRNA weight ratio of approximately 10:1 to 30:1. Briefly, the mRNA was diluted to 0.2 mg/mL in 10 to 50 mM citrate buffer, pH 4. Syringe pumps were used to mix the ethanolic lipid solution with the mRNA aqueous solution at a ratio of about 1:5 to 1:3 (vol/vol) with total flow rates above 15 ml/min. The ethanol was then removed and the external buffer replaced with PBS by dialysis. Finally, the lipid nanoparticles were filtered through a 0.2 μm pore sterile filter. Lipid nanoparticle particle size was approximately 55-95 nm diameter, and in some instances approximately 70-90 nm diameter as determined by quasi-elastic light scattering using a Malvern Zetasizer Nano ZS (Malvern, UK).
Studies were performed in 6-8 week old female C57BL/6 mice (Charles River) 8-10 week old CD-1 (Harlan) mice (Charles River) according to guidelines established by an institutional animal care committee (ACC) and the Canadian Council on Animal Care (CCAC). Varying doses of mRNA-lipid nanoparticle were systemically administered by tail vein injection and animals euthanized at a specific time point (e.g 4 hrs) post-administration. Liver and spleen were collected in pre-weighed tubes, weights determined, immediately snap frozen in liquid nitrogen and stored at −80° C. until processing for analysis.
For liver, approximately 50 mg was dissected for analyses in a 2 mL FastPrep tubes (MP Biomedicals, Solon Ohio). ¼″ ceramic sphere (MP Biomedicals) was added to each tube and 500 μL of Glo Lysis Buffer—GLB (Promega, Madison Wis.) equilibrated to room temperature was added to liver tissue. Liver tissues were homogenized with the FastPrep24 instrument (MP Biomedicals) at 2×6.0 m/s for 15 seconds. Homogenate was incubated at room temperature for 5 minutes prior to a 1:4 dilution in GLB and assessed using SteadyGlo Luciferase assay system (Promega). Specifically, 50 μL of diluted tissue homogenate was reacted with 50 μL of SteadyGlo substrate, shaken for 10 seconds followed by 5 minute incubation and then quantitated using a CentroXS^3 LB 960 luminometer (Berthold Technologies, Germany). The amount of protein assayed was determined by using the BCA protein assay kit (Pierce, Rockford Ill.). Relative luminescence units (RLU) were then normalized to total ug protein assayed. To convert RLU to ng luciferase a standard curve was generated with QuantiLum Recombinant Luciferase (Promega). Based in the data provided in FIG. 1, the four-hour time point was chosen for efficacy evaluation of the lipid formulations.
The FLuc mRNA (L-6107) from Trilink Biotechnologies will express a luciferase protein, originally isolated from the firefly, Photinus pyralis. FLuc is commonly used in mammalian cell culture to measure both gene expression and cell viability. It emits bioluminescence in the presence of the substrate, luciferin. This capped and polyadenylated mRNA is fully substituted with 5-methylcytidine and pseudouridine.
The cationic lipids shown in Table 2 have previously been tested with nucleic acids. For comparative purposes, these lipids were also used to formulate lipid nanoparticles containing the FLuc mRNA (L-6107) using an in line mixing method, as described in Example 1 and in PCT/US10/22614, which is hereby incorporated by reference in its entirety. […]

[3] = Lipid Ratio B: 47.5% cationic lipid/10% DSPC/40.8% cholesterol/1.7% PEG lipid
[4] = Lipid Ratio A: 50% cationic lipid/10% DSPC/38.5% cholesterol/1.5% PEG lipid (PEG-DMA)

pKa [1] | SMILES | Liver Luc @ 0.3 mg/kg (ng luc/g liver) [2, 3] [ng luc/g liver] | Liver Luc @ 1.0 mg/kg (ng luc/g liver) [2, 3] [ng luc/g liver] | Liver Luc @ 0.3 mg/kg (ng luc/g liver) [2, 4] [ng luc/g liver] | Liver Luc @ 1.0 mg/kg (ng luc/g liver) [2, 4] [ng luc/g liver]
6.25 | CCCCCCC(CCCC)C(=O)OCCCCCCCCCN(CCCO)CCCCCCCCCOC(=O)C(CCCC)CCCCCC (stereo not drawn) [Compound 45] | 1026 ± 199 | 8806 ± 2836 |  | 
5.79 | CCCCCCCCCCCCC(CCCCCCCCCC)C(=O)OCCCCCCN(CCCO)CCCCCCOC(=O)C(CCCCCCCCCC)CCCCCCCCCCCC (stereo not drawn) [Compound 44] | 23 ± 11 | 342 ± 229 |  | 
5.77 | CCCCCCCCCCCCC(CCCCCCCCCC)C(=O)OCCCCCCN(CCCCO)CCCCCCOC(=O)C(CCCCCCCCCC)CCCCCCCCCCCC (stereo not drawn) [Compound 27] |  |  | 110 ± 42 | 1088 ± 802
5.89 | CCCCCCCCCCC(CCCCCCCC)C(=O)OCCCCCCN(CCCO)CCCCCCOC(=O)C(CCCCCCCC)CCCCCCCCCC (stereo not drawn) [Compound 37] |  |  | 1244 ± 907 | 2035 ± 498
6.22 | CCCCCCC(CCCC)C(=O)OCCCCCCCCCN(CCCCO)CCCCCCCCCOC(=O)C(CCCC)CCCCCC (stereo not drawn) [Compound 25] |  |  | 1648 ± 534 | 13880 ± 5083
6.09 | CCCCCCCCC(CCCCCC)C(=O)OCCCCCCN(CCCCCCOC(=O)C(CCCCCC)CCCCCCCC)CC(O)CO (stereo not drawn) [Compound 30] |  |  | 49 ± 17 | 237 ± 92
5.84 | CCCCCCCCCCC(CCCCCCCC)C(=O)OCCCCCCN(CCCCO)CCCCCCOC(=O)C(CCCCCCCC)CCCCCCCCCC (stereo not drawn) [Compound 26] |  |  | 1143 ± 782 | 1238 ± 1686
6.1 | CCCCCCCCC(CCCCCC)C(=O)OCCCCCCCCCCCCN(CCCO)CCCCCCCCCCCCOC(=O)C(CCCCCC)CCCCCCCC (stereo not drawn) [Compound 38] |  |  | 60 ± 5 | 365 ± 181
6.06 | CCCCCCCCC(CCCCCC)COC(=O)CCCCCCCN(CCO)CCCCCCCC(=O)OCC(CCCCCC)CCCCCCCC (stereo not drawn) [Compound 46] | 4 ± 2 | 5 ± 3 |  | 

Continued, molecule first:

SMILES | pKa [1] | Liver Luc @ 0.3 mg/kg (ng luc/g liver) [2, 3] [ng luc/g liver] | Liver Luc @ 1.0 mg/kg (ng luc/g liver) [2, 3] [ng luc/g liver] | Liver Luc @ 0.3 mg/kg (ng luc/g liver) [2, 4] [ng luc/g liver] | Liver Luc @ 1.0 mg/kg (ng luc/g liver) [2, 4] [ng luc/g liver]
CCCCCCCCC(CCCCCC)C(=O)OCCCCCCN(CCO)CCCCCCOC(=O)C(CCCCCC)CCCCCCCC (stereo not drawn) [Compound 1] | 5.89 |  |  | 467 ± 72 | 3780 ± 210
CCCCCCCCC(CCCCCC)C(=O)OCCCCCCN(CCCCCO)CCCCCCOC(=O)C(CCCCCC)CCCCCCCC (stereo not drawn) [Compound 7] | 6.11 |  |  | 1158 ± 136 | 8406 ± 2335
CCCCCCCCC(CCCCCC)C(=O)OCCCCCCN(CCCCO)CCCCCCOC(=O)C(CCCCCC)CCCCCCCC (stereo not drawn) [Compound 3] | 6.09 |  |  | 1275 ± 410 | 10643 ± 1858
CCCCCCCCC(CCCCCC)COC(=O)CCCCCN(CCCCO)CCCCCC(=O)OCC(CCCCCC)CCCCCCCC (stereo not drawn) [Compound 17] | 6.28 |  |  | 275 ± 139 | 1554 ± 761
CCCCCCCCC(CCCCCC)C(=O)OCCCCN(CCO)CCCCOC(=O)C(CCCCCC)CCCCCCCC (stereo not drawn) [Compound 6] | 5.42 |  |  | 122 ± 49 | 520 ± 365
CCCCCCCCC(CCCCCC)C(=O)OCCCCCCN(CCCO)CCCCCCOC(=O)C(CCCCCC)CCCCCCCC (stereo not drawn) [Compound 2] | 6.05 |  |  | 1195 ± 245 | 10059 ± 3833
CCCCCCCCC(CCCCCC)C(=O)OCCCCCCCCCCCCN(CCCCO)CCCCCCCCCCCCOC(=O)C(CCCCCC)CCCCCCCC (stereo not drawn) [Compound 23] | 5.98 |  |  | 137 ± 51 | 487 ± 209
CCCCCCCCC(CCCCCC)COC(=O)CCCCCCCN(CCCCO)CCCCCCCC(=O)OCC(CCCCCC)CCCCCCCC (stereo not drawn) [Compound 20] | 6.36 | 691 ± 150 | 4279 ± 2226 |  | 
CCCCCCCCC(CCCCCC)COC(=O)CCCCN(CCCCO)CCCCC(=O)OCC(CCCCCC)CCCCCCCC (stereo not drawn) [Compound 15] | 6.14 |  |  | 247 ± 25 | 1633 ± 449
CCCCCCCCC(CCCCCC)C(=O)OCCCCCCN(CCCCCCO)CCCCCCOC(=O)C(CCCCCC)CCCCCCCC (stereo not drawn) [Compound 8] | 5.84 |  |  | 1467 ± 943 | 7230 ± 2290
CCCCCCCCC(CCCCCC)C(=O)OCCCCN(CCCCO)CCCCOC(=O)C(CCCCCC)CCCCCCCC (stereo not drawn) [Compound 4] | 5.6 |  |  | 378 ± 82 | 1952 ± 940
CCCCCCCCC(CCCCCC)C(=O)OCCCCN(CCCO)CCCCOC(=O)C(CCCCCC)CCCCCCCC (stereo not drawn) [Compound 5] | 5.59 |  |  | 183 ± 45 | 713 ± 298
CCCCCCCCC(CCCCCC)C(=O)OCCCCCCCCCN(CCCCO)CCCCCCCCCOC(=O)C(CCCCCC)CCCCCCCC (stereo not drawn) [Compound 22] | 6.1 |  |  | 660 ± 184 | 7533 ± 4499
CCCCCCCCC(CCCCCC)COC(=O)CCCCCN(CCCO)CCCCCC(=O)OCC(CCCCCC)CCCCCCCC (stereo not drawn) [Compound 16] | 6.31 |  |  | 344 ± 133 | 2633 ± 1140
